# Literature values, collected in patent US7517693B2, “Method and apparatus for determining a molecular descriptor of absorption for a candidate compound” (North Carolina State University, priority 2002, dated 2009).
# Conditions: Table IV study compounds
row,Compound,logKo/w
1,O=[N+]([O-])c1ccc(O)cc1 [4-Nitrophenol],1.91
2,CCOP(=S)(OCC)Oc1ccc([N+](=O)[O-])cc1 [Parathion],3.83
3,Oc1cccc(O)c1 [Resorcinol],0.8
4,O=S1OCC2C(CO1)C1(Cl)C(Cl)=C(Cl)C2(Cl)C1(Cl)Cl (stereo not drawn) [endosulfan II],3.83
5,ClC1=C(Cl)C2(Cl)C3C4OC4C(Cl)C3C1(Cl)C2(Cl)Cl (stereo not drawn) [heptachlor epoxide],4.98
6,Cc1cccc(O)c1 [m-cresol],1.95
7,Cc1cccc(C)c1 [m-xylene],3.20
8,COC(=O)c1cccnc1 [methyl nicotinate],0.64
9,COC(=O)c1ccccc1O [methyl salicylate],2.55
10,O=C(O)c1ccccc1O [salicylic acid],2.26
11,Nonylphenol,5.99

# Conditions: Table III calibration compounds; 25° C.; known literature descriptor
row,Compound,logL^16 (solute gas-hexadecane partition coefficient)
1,O=[N+]([O-])c1ccc(O)cc1 [4-Nitrophenol],5.876

# Same assay, conditions: Table III calibration compounds; known literature descriptor
Compound,α (effective solute H-bond acidity),β (effective solute H-bond basicity),π (effective solute dipolarity and polarizability)
O=[N+]([O-])c1ccc(O)cc1 [4-Nitrophenol],0.82,0.26,1.72
